Laboratory results: patent US20200354426A1 (MEDIMMUNE LIMITED, priority 2016, published 2020)

Test system: overweight or obese subjects with type 2 diabetes mellitus
Experiment: Phase 1/2 multiple-ascending-dose study of G933, Cohorts 1-6 (efficacy, PK, safety)
Format: in vivo, human
Text: Approximately 75 overweight or obese subjects with relatively well controlled type 2 diabetes mellitus (T2DM) are enrolled to participate in the study. The enrolled subjects meet the following inclusion and exclusion criteria.
Exclusion Criteria: • Any condition that would interfere with evaluations of the investigational product or interpretation of subject safety or study results. […] Patients who utilize benzodiazepines for chronic anxiety or sleep disorders may be permitted to enter the study; • History of severe allergy/hypersensitivity or ongoing clinically important allergy/hypersensitivity; • Whole blood or red blood cell donation, or any blood loss >500 mL during the 2 months prior to screening; • Received another new chemical entity (defined as a compound that has not been approved for marketing), or has participated in any other clinical study that included drug treatment within at least 30 days or 5 half-lives prior to the first administration of investigational product in this study (whichever is longer). The period of exclusion to begin 30 days or 5 half-lives of investigational product after the final dose, or after the last visit, whichever is longest.
Part A consists of 3 cohorts.
Part B consists of 1 cohort.
The initial dose is 100 μg.
Approximately 32 overweight or obese subjects with relatively well controlled type 2 diabetes mellitus (T2DM) are enrolled to participate in the study. The enrolled subjects meet the inclusion and exclusion criteria described in Example 5 with the following exceptions:
Inclusion Criteria: • Cohort 5 and 6 subjects must be willing and able to self-administer daily subcutaneous (SC) injections following an initial self-injection of placebo (or normal saline) during the screening period.
Exclusion Criteria: • Abnormal vital signs, after 10 minutes of supine rest, are defined as any of the following: (a) If systolic BP<90 mm Hg or ≥140 mm Hg; (b) Diastolic BP<50 mm Hg or ≥90 mm Hg; or (c) HR<45 or >85 bpm; • Unstable angina pectoris or stable angina pectoris classified higher than Canadian Cardiovascular Society class II or any previous medical history of myocardial infarction or stroke, or a history of a transient ischemic attack within the prior 12 months.
A randomized, double-blind, multiple-ascending dose study is performed. This study consists of 2 cohorts: cohort 5 and cohort 6. […] Cohorts 5 and 6 have approximately 32 subjects total and are run in parallel.
The study consists of an inpatient up-titration evaluation period beginning on Day 3 for both Cohorts 5 and 6 and an outpatient follow-up period. The first 4 days and the final day of dosing at 300 μg […].
Subjects are admitted to the clinic as described in Example 5 for Cohorts 1-4. […] Subjects have a second inpatient period for the initiation of the 300 μg dose ending on the fourth day at that dose followed by at-home self administration.
Additional time points include before commencing the 300 μg dose (Day 16 for Cohort 5 and Day 11 for Cohort 6) and at the end of dosing (Day 22 for Cohort 5 and Day 17 for Cohort 6). The MMT are performed as described in Example 5.

[1] = Cohort 4, after 41 days, p<0.001

In the case of “L-Histidyl-L-seryl-L-glutaminylglycyl-L-threonyl-L-phenylalanyl-L-threonyl-L-seryl-L-alpha-aspartyl-(N6-[N-(1-oxohexadecyl)-L-gamma-gutamyl])L-lysy-L-sery-L-alpha-glutamyl-L-tyrosyl-L-leucyl-L-alpha-aspartyl-L-seryl-L-alpha-glutamyl-L-arginyl-L-alanyl-L-arginyl-L-alpha-L-aspartyl-L-phenylalanyl-L-valyl-L-alanyl-L-tryptophyl-L-leucyl-L-alpha-glutamyl-L-alanylglycylglycine [Peptide G933]”, the “Fasting Glucose (change)” value (Cohort 1, 100 ug, n = 6) was -28.00 mg/dL, the “Weight (change)” value (Cohort 1, 100 ug, n = 6) was -1.1 kg and the “Fasting Glucose (change)” value (Cohort 2, 150 ug, n = 6) was -17.90 mg/dL. The “Weight (change)” value (Cohort 2, 150 ug, n = 6) was -0.5 kg, the weight differential (Cohort 3 (up to 200 μg, 15 days)) was “more than 2 kg” and the “Fasting Glucose (change)” value (Cohort 3, 200 ug, n = 6) was -43.20 mg/dL. The “Weight (change)” value (Cohort 3, 200 ug, n = 6) was -2.4 kg, the “Fasting Glucose (change)” value (Cohort 4, 200 ug, n = 25) was -32.62 mg/dL and the “Weight (change)” value (Cohort 4, 200 ug, n = 25) was -2.11 kg. For the same substance, the “patients who lost at least 2% of their weight” value (Cohort 4, after 41 days) was 84%, the “patients who lost at least 5 kg” value (Cohort 4, after 41 days) was 44% and the “percent of weight lost” value (Cohort 4, after 41 days) was “about 4.18%”. The weight lost (Cohort 4, after 41 days) was “about 3.83 kg”, the HbA1c reduction (Cohort 4, after 41 days of treatment) was 0.92% and the “percent weight loss difference between G933 and placebo” value [1] was 2.47%. For the same substance, the “weight loss difference between G933 and placebo” value [1] was 2.12 kg, the “mean reduction in glucose AUC from baseline (day 1) to day 41” value (Cohort 4, up to 200 μg, 90% C.I. −47.1, −29.0) was 38.5% and the “mean relative reduction in liver fat percentage from baseline versus placebo” value (Cohort 4, 95% CI 7.2, 33.9, p=0.004) was 20.5%. For the same substance, the “reduction in liver volume compared to placebo” value (Cohort 4, (−0.24, −0.03), p=0.01) was 0.14 L, the “mean HbA1c on day 42” value (Cohort 4, baseline mean […]) was 6.3% and the “glucose AUC reduction” value (Cohort 5 (up to 300 μg, 22 days), 90% C.I. −49.9, −33.5) was 41.7%. For the same substance, the “Fasting Glucose (change)” value (Cohort 5, 300 ug, n = 12) was -24.40 mg/dL, the “Weight (change)” value (Cohort 5, 300 ug, n = 12) was -2.11 kg and the “weight loss difference versus placebo” value (Cohort 5, after 22 days) was 2.11 kg. The weight lost (Cohort 5, after 22 days) was “about 3.09 kg”, the “glucose AUC reduction” value (Cohort 6 (up to 300 μg, 17 days), C.I. −43.3, −28.3) was 35.8% and the “Fasting Glucose (change)” value (Cohort 6, 300 ug, n = 12) was -36.94 mg/dL. The “Weight (change)” value (Cohort 6, 300 ug, n = 12) was -1.88 kg, the “weight loss difference versus placebo” value (Cohort 6, after 17 days) was 1.88 kg and the weight lost (Cohort 6, after 17 days) was “about 2.23 kg”. The “mixed-meal test glucose AUC reduction” value (Cohorts 1-3 (100-200 μg QD)) was > 40% and the weight loss (Cohorts 1-3, dose dependent trend) was “up to 2 kg”.
